Measured values as given in the supplement of paper PMC11451515.

Test system: SEM cells
Assay: cell viability relative to DMSO control; higher = less cytotoxic
Conditions: 48 h
In short: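 Viability, reported as a per-plate percentage of DMSO wells with cell-free wells as background, came from CellTiter-Glo One luminescence. Reading took place after 48 h at 37°C. Before that, NOMO1 or SEM (500 cells/well) or P12-Ichikawa (1000 cells/well) leukemia cells, adapted for at least four passages in each medium, were seeded in 1536-well plates (5 μl) and pin-dosed with library compounds in DMSO, 47 μM to 0.79 nM over 11 threefold points.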

[1] = HPLM + 10% dialyzed FBS, 0.000781 µM
[2] = HPLM + 10% dialyzed FBS, 0.00234 µM
[3] = HPLM + 10% dialyzed FBS, 0.00702 µM
[4] = HPLM + 10% dialyzed FBS, 0.0211 µM
[5] = HPLM + 10% dialyzed FBS, 0.0632 µM
[6] = HPLM + 10% dialyzed FBS, 0.19 µM
[7] = HPLM + 10% dialyzed FBS, 0.569 µM
[8] = HPLM + 10% dialyzed FBS, 1.71 µM
[9] = HPLM + 10% dialyzed FBS, 5.12 µM
[10] = HPLM + 10% dialyzed FBS, 15.4 µM
[11] = HPLM + 10% dialyzed FBS, 46.1 µM
[12] = RPMI 5 mM glucose + 10% FBS, 0.000781 µM
[13] = RPMI 5 mM glucose + 10% FBS, 0.00234 µM
[14] = RPMI 5 mM glucose + 10% FBS, 0.00702 µM
[15] = RPMI 5 mM glucose + 10% FBS, 0.0211 µM
[16] = RPMI 5 mM glucose + 10% FBS, 0.0632 µM
[17] = RPMI 5 mM glucose + 10% FBS, 0.19 µM
[18] = RPMI 5 mM glucose + 10% FBS, 0.569 µM
[19] = RPMI 5 mM glucose + 10% FBS, 1.71 µM
[20] = RPMI 5 mM glucose + 10% FBS, 5.12 µM
[21] = RPMI 5 mM glucose + 10% FBS, 15.4 µM
[22] = RPMI 5 mM glucose + 10% FBS, 46.1 µM
[23] = RPMI 5 mM glucose + 10% dialyzed FBS, 0.000781 µM
[24] = RPMI 5 mM glucose + 10% dialyzed FBS, 0.00234 µM
[25] = RPMI 5 mM glucose + 10% dialyzed FBS, 0.00702 µM
[26] = RPMI 5 mM glucose + 10% dialyzed FBS, 0.0211 µM
[27] = RPMI 5 mM glucose + 10% dialyzed FBS, 0.0632 µM
[28] = RPMI 5 mM glucose + 10% dialyzed FBS, 0.19 µM
[29] = RPMI 5 mM glucose + 10% dialyzed FBS, 0.569 µM
[30] = RPMI 5 mM glucose + 10% dialyzed FBS, 1.71 µM
[31] = RPMI 5 mM glucose + 10% dialyzed FBS, 5.12 µM
[32] = RPMI 5 mM glucose + 10% dialyzed FBS, 15.4 µM
[33] = RPMI 5 mM glucose + 10% dialyzed FBS, 46.1 µM

SMILES | cell viability [1] [%] | cell viability [2] [%] | cell viability [3] [%] | cell viability [4] [%] | cell viability [5] [%] | cell viability [6] [%] | cell viability [7] [%] | cell viability [8] [%] | cell viability [9] [%] | cell viability [10] [%] | cell viability [11] [%] | cell viability [12] [%] | cell viability [13] [%] | cell viability [14] [%] | cell viability [15] [%] | cell viability [16] [%] | cell viability [17] [%] | cell viability [18] [%] | cell viability [19] [%] | cell viability [20] [%] | cell viability [21] [%] | cell viability [22] [%] | cell viability [23] [%] | cell viability [24] [%] | cell viability [25] [%] | cell viability [26] [%] | cell viability [27] [%] | cell viability [28] [%] | cell viability [29] [%] | cell viability [30] [%] | cell viability [31] [%] | cell viability [32] [%] | cell viability [33] [%]
Cc1cc(-c2nnc3n2CCCCC3)c(C)n1-c1ccccc1 | 110 | 116 | 115 | 123 | 117 | 118 | 120 | 119 | 98.7 | 117 | 115 | 53.2 | 124 | 103 | 107 | 95.6 | 107 | 124 | 126 | 109 | 115 | 102 | 113 | 114 | 140 | 131 | 95.3 | 127 | 136 | 135 | 114 | 126 | 107
COC1=CC(=CC=C1)C2=CC=C(NC(=O)/C3=C(/CCC3)C(O)=O)C(=C2)F | 103 | 109 | 116 | 108 | 122 | 108 | 119 | 107 | 104 | 104 | 76.6 | 92.5 | 108 | 112 | 116 | 127 | 120 | 121 | 118 | 107 | 111 | 42.8 | 95.6 | 115 | 109 | 113 | 103 | 109 | 105 | 111 | 111 | 78.2 | 30.9
C[C@]12CC[C@@H]3c4ccc(O)cc4CC[C@H]3[C@@H]1CC[C@@H]2O | 109 | 110 | 121 | 115 | 98.9 | 119 | 113 | 97.4 | 95.7 | 85.2 | 23.4 | 124 | 124 | 129 | 142 | 125 | 123 | 118 | 114 | 113 | 84 | 21.1 | 127 | 118 | 124 | 144 | 116 | 121 | 114 | 115 | 105 | 82 | 16.5
CC(=O)Oc1cc2c(s1)CCN(C(C(=O)C1CC1)c1ccccc1F)C2.Cl (stereo unspecified) | 84.3 | 102 | 103 | 113 | 115 | 112 | 110 | 122 | 120 | 101 | 68.5 | 71.3 | 96.9 | 88.7 | 96.7 | 90.8 | 101 | 94.2 | 100 | 101 | 82.1 | 53.3 | 76.1 | 106 | 103 | 111 | 107 | 114 | 110 | 117 | 115 | 78.6 | 54.4
CN(c1nccc(=O)[nH]1)C1CCN(c2nc3ccccc3n2Cc2ccc(F)cc2)CC1 | 105 | 107 | 115 | 113 | 112 | 113 | 108 | 110 | 115 | 91 | 123 | 78.4 | 94.8 | 95 | 80 | 84.8 | 88.9 | 95.3 | 98.1 | 91.9 | 79.7 | 87.7 | 94.7 | 103 | 102 | 111 | 106 | 113 | 109 | 106 | 101 | 104 | 99.6
O=P1(N(CCCl)CCCl)NCCCO1 (stereo unspecified) | 113 | 104 | 96.5 | 110 | 110 | 114 | 92.8 | 111 | 84.8 | 29.5 | 17.9 | – | – | – | – | – | – | – | – | – | – | – | 96.6 | 95.6 | 98.6 | 119 | 99.7 | 102 | 109 | 84 | 80.5 | 20.2 | 11.4
CC(C)(C)Cn1c(N)nc2ccc(-c3[nH]c(C(C)(C)C)nc3-c3ccc(F)cc3)nc21 | 97.1 | 94.9 | 84.7 | 87.8 | 91.5 | 82.2 | 85.2 | 79.1 | 84.5 | 77.6 | 73.5 | 123 | 111 | 108 | 157 | 146 | 78.1 | 54.1 | 88.5 | 91.9 | 15.4 | 59.3 | 102 | 98.5 | 79.3 | 90.9 | 106 | 87.9 | 90 | 87 | 85.3 | 13.4 | 98.2
Cn1c(=O)c2[nH]cnc2n(C)c1=O | 102 | 112 | 107 | 109 | 108 | 110 | 98.6 | 117 | 105 | 110 | 102 | 104 | 107 | 110 | 98.1 | 98.2 | 103 | 99.7 | 94.8 | 110 | 99 | 97.2 | 98.8 | 126 | 102 | 115 | 124 | 113 | 106 | 114 | 105 | 124 | 104
CCCOc1ccc2[nH]c(NC(=O)OC)nc2c1 | 106 | 99.4 | 97.6 | 82.9 | 42.1 | 25.4 | 23 | 25.8 | 25.7 | 24.6 | 23 | 95.3 | 78.3 | 70 | 60 | 23.6 | 14.1 | 13.2 | 9.52 | 11.6 | 12.1 | 15.1 | 120 | 123 | 94.4 | 80.2 | 45.2 | 20.1 | 22.5 | 15.3 | 17.5 | 20.8 | 18.7
CN(C)/[N+]([O-])=N/Oc1cc(ON[N+](=O)N2CCN(C(=O)c3cc(Cc4n[nH]c(=O)c5ccccc45)ccc3F)CC2)c([N+](=O)[O-])cc1[N+](=O)[O-] | 94 | 97.2 | 103 | 97.7 | 100 | 58.3 | 101 | 116 | 109 | 110 | 105 | 99 | 101 | 93.1 | 93.5 | 100 | 55.9 | 98.2 | 109 | 111 | 113 | 103 | 89.9 | 79.2 | 112 | 103 | 109 | 40.1 | 137 | 122 | 106 | 100 | 91.8
Nc1nc(Nc2ccc([S+](N)(=O)[O-])cc2)nn1C(=O)c1c(F)cccc1F | 104 | 111 | 97.8 | 133 | 104 | 113 | 123 | 116 | 64.1 | 32.1 | 5.68 | 100 | 107 | 113 | 110 | 114 | 101 | 100 | 109 | 76.5 | 34.7 | 6.53 | 88.9 | 108 | 114 | 115 | 110 | 122 | 111 | 123 | 64.8 | 34.5 | 4.33
C/C(=C\c1csc(C)n1)[C@@H]1C[C@@H]2O[C@@H]2CCC[C@H](C)[C@H](O)[C@@H](C)C(=O)C(C)(C)[C@@H](O)CC(=O)O1 | 26.5 | 21.4 | 22.1 | 22.7 | 19.9 | 20.3 | 23.7 | 21.5 | 19.1 | 20.8 | 20.7 | 14.8 | 18.4 | 16.2 | 16 | 16.4 | 16.4 | 16.2 | 13.4 | 16.1 | 16.3 | 13.4 | 32.1 | 17.1 | 19.3 | 16.8 | 15.6 | 17.7 | 19.6 | 15.2 | 18.7 | 21.8 | 19.2
OC1=CC2=C(C(=O)\C=C(/O2)C3=CC=CC=C3)C(=C1O)O | 105 | 116 | 106 | 103 | 111 | 109 | 104 | 93.3 | 77.5 | 25.6 | 23.8 | – | – | – | – | – | – | – | – | – | – | – | 108 | 94.4 | 102 | 94.5 | 104 | 99.5 | 106 | 102 | 69.5 | 16.7 | 14.6
COc1nccc(-c2c(-c3ccc(F)cc3)ncn2C2CCC(O)CC2)n1 (stereo unspecified) | 124 | 123 | 132 | 128 | 122 | 105 | 125 | 113 | 106 | 116 | 36.1 | 102 | 116 | 97.3 | 103 | 96.6 | 56.7 | 53.4 | 63.9 | 63.8 | 47.9 | 12.2 | 103 | 126 | 116 | 114 | 123 | 127 | 111 | 112 | 94.9 | 87.9 | 26.8
CCCC(CCC)C(=O)[O-] | 87 | 88.8 | 110 | 97.5 | 92.3 | 91 | 103 | 112 | 93.3 | 100 | 88.6 | 104 | 103 | 121 | 123 | 115 | 102 | 125 | 125 | 115 | 116 | 135 | 74.3 | 105 | 95.3 | 124 | 89.7 | 96.8 | 107 | 118 | 107 | 98.1 | 108
C[N+](C)(C)CC(=O)O.[Cl-] | 56.8 | 83.2 | 80.5 | 73.7 | 79.7 | 85.5 | 88.3 | 26.3 | 93.1 | 93.4 | 89.1 | 76.8 | 80.8 | 73 | 77.4 | 81.8 | 89.2 | 96 | 16.6 | 86.8 | 90.2 | 93.4 | 81.5 | 95 | 90.9 | 87.8 | 81.7 | 89 | 100 | 21 | 91.8 | 88.8 | 74.2
